Assay results reported in publication PMC4522185 (ChemistryOpen, 2015).
Converted amounts (≈) assume the structure as drawn. Like-named read-outs stand apart in the source and are kept apart here.

Columns and labels:
[1] = molecular target: T1, Mtb 20S open-gate proteasome (Mycobacterium tuberculosis, UniProt P9WHT9); test: biochemical
[2] = physchem; details: pbs, pH 7.4, aqueous buffer
[3] = molecular target: human 20S proteasome (chymotrypsin-like activity, with PA28 activator) (Homo sapiens, UniProt P28074); test: fluorogenic suc-LLVY-AMC cleavage; format: biochemical
[4] = physchem; details: ch3cn+pbs (1+1), pH 7.4
[5] = physchem; details: pbs ph 7.4, pH 7.4
[6] = molecular target: T1, Mtb 20S open-gate proteasome; test: biochemical; remark: listed apart in the source
[7] = physchem; details: ch3cn+pbs (1+1), pH 7.4; remark: listed apart in the source
[8] = molecular target: T1, Mtb 20S open-gate proteasome; test: biochemical; remark: listed apart in the source
[9] = physchem; details: pbs, pH 7.4, aqueous buffer; remark: listed apart in the source

Chain of human 20S proteasome (chymotrypsin-like activity, with PA28 activator) (P28074 60-263): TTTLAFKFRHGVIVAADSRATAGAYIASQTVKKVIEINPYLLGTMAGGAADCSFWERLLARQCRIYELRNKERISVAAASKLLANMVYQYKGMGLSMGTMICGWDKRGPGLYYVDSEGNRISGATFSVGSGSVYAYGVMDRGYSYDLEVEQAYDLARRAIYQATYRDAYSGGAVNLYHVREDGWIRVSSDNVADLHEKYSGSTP
Chain of human 20S proteasome (chymotrypsin-like activity, with PA28 activator) (P25786 whole entry partner): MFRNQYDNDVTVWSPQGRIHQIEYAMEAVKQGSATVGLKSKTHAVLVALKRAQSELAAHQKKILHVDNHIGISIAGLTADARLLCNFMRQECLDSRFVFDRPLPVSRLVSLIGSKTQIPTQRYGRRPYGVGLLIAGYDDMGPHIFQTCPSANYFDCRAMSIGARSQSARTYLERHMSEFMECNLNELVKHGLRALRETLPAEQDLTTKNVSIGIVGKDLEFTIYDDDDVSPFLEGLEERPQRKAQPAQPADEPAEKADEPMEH
T1 sequence (P9WHT9 whole entry): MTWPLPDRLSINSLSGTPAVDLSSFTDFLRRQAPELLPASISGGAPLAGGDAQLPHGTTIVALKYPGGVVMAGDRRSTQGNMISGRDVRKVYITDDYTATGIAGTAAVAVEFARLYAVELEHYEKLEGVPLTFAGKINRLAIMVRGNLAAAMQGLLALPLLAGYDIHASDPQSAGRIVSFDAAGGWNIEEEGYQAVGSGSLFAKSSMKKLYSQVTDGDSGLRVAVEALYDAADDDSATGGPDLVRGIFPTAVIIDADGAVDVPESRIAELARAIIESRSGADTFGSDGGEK
T1 sequence (P9WHU1 whole entry partner): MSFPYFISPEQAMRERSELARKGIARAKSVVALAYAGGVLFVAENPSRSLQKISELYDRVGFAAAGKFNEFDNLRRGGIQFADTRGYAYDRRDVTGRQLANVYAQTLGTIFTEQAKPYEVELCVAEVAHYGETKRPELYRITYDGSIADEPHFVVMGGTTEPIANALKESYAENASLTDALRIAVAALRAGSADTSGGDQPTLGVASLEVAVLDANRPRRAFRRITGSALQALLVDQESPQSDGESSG

Compound | IC50 [1] | solubility at 18 h [2] | IC50 [3] | remaining at 24 h, 50 µM [4] | remaining at 24 h, 50 µM [5] | IC50 [6] | remaining at 24 h, 50 µM [7] | IC50 [8] | solubility at 18 h [9]
O=Cc1ccc(/C=C/c2nsc(=O)o2)o1 [compound 53, (E)-5-(2-(2-Oxo-1,3,4-oxathiazol-5-yl)vinyl)furan-2-carbaldehyde] | 0.735 µM | 56.1 µM (≈ 12.5 µg/mL) | 3.3 µM | 88.9% |  |  |  |  | 
O=c1oc(/C=C/c2cccs2)ns1 [compound 51, (E)-5-(2-(Thiophen-2-yl)vinyl)-1,3,4-oxathiazol-2-one] | 2.1 µM | 22.6 µM (≈ 4.77 µg/mL) | 18.5 µM | 97.6% |  |  |  |  | 
COc1ccc(/C=C/c2nsc(=O)o2)cc1 [compound 28, (E)-5-(4-Methoxystyryl)-1,3,4-oxathiazol-2-one] |  |  | 8.5 µM |  | 1.5% | 1.35 µM |  |  | 
O=c1oc(/C=C/c2ccsc2)ns1 [compound 52, (E)-5-(2-(Thiophen-3-yl)vinyl)-1,3,4-oxathiazol-2-one] | 1.15 µM | 19.7 µM (≈ 4.16 µg/mL) | 11.3 µM | 99.1% |  |  |  |  | 
O=c1oc(/C=C/c2ccccc2)ns1 [compound 17, (E)-5-Styryl-1,3,4-oxathiazol-2-one] |  |  | > 100 µM |  |  |  | 38.7% | 0.42 µM | 19.1 µM (≈ 3.92 µg/mL)
O=c1oc(/C=C/c2ccncc2)ns1 [compound 49, (E)-5-(2-(Pyridin-4-yl)vinyl)-1,3,4-oxathiazol-2-one] | 2.75 µM | 84.7 µM (≈ 17.5 µg/mL) | 77 µM | 91.6% |  |  |  |  | 
